For 21 compounds, T/C results are on record in PubChem BioAssay AID330 (DTP/NCI, 2004).

Each structure is given as a SMILES string. Where “and” joins values, the source holds several entries; their conditions need not be identical. Identical values can stand only once. Toxic doses and inconclusive results are not listed.

The test system of the experiment is P388 leukemia ip, CD2F1 mice, survival T/C. The experiment in a line: NCI In Vivo Anticancer Drug Screen. Data for tumor model P388 Leukemia (intraperitoneal) in CD2F1 (CDF1) mice. To be noted: endpoint: median survival time, higher = longer survival. In short, it runs like this: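 Mice carrying the transplanted tumor received test compound or vehicle. Survival was recorded in each group, and the value is the treated-group measurement divided by that of the vehicle-treated control group.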

Where [1] appears, read: dose: 50.0 mg/kg/injection, schedule: Q01DX005 (ip), vehicle: saline with Tween-80.
The mark [2] stands for this setting: dose: 100.0 mg/kg/injection, schedule: Q01DX005 (ip), vehicle: saline with Tween-80.
The mark [3] stands for this setting: dose: 200.0 mg/kg/injection, schedule: Q01DX005 (ip), vehicle: saline with Tween-80.
Where [4] appears, read: dose: 50.0 mg/kg/injection, schedule: Q01DX001 (ip), vehicle: Klucel (hydroxypropylcellulose) (HPC).
The mark [5] stands for this setting: dose: 100.0 mg/kg/injection, schedule: Q01DX001 (ip), vehicle: Klucel (hydroxypropylcellulose) (HPC).
[6] abbreviates: dose: 200.0 mg/kg/injection, schedule: Q01DX001 (ip), vehicle: Klucel (hydroxypropylcellulose) (HPC).
[7] abbreviates: dose: 60.0 mg/kg/injection, schedule: Q01DX005 (ip), vehicle: saline.
The mark [8] stands for this setting: dose: 120.0 mg/kg/injection, schedule: Q01DX005 (ip), vehicle: saline.
Setting [9] is: dose: 60.0 mg/kg/injection, schedule: Q01DX005 (ip), vehicle: saline with Tween-80.

As for `OC1CCOC1` (stereo not drawn), the T/C is 95 % of control (dose: 6.25 mg/kg/injection, schedule: Q01DX009 (ip), vehicle: saline); 97 % of control (dose: 12.5 mg/kg/injection, schedule: Q01DX009 (ip), vehicle: saline); 100 % of control (dose: 25.0 mg/kg/injection, schedule: Q01DX009 (ip), vehicle: saline); 101 % of control (dose: 50.0 mg/kg/injection, schedule: Q01DX009 (ip), vehicle: saline); 101 % of control (dose: 100.0 mg/kg/injection, schedule: Q01DX009 (ip), vehicle: saline); 98 % of control (dose: 200.0 mg/kg/injection, schedule: Q01DX009 (ip), vehicle: saline). The T/C was 94 % of control (dose: 400.0 mg/kg/injection, schedule: Q01DX009 (ip), vehicle: saline) and 96 % of control (dose: 800.0 mg/kg/injection, schedule: Q01DX009 (ip), vehicle: saline).
Turning to `COC(=O)Nc1nc2ccc(C(C)(O)c3cccs3)cc2[nH]1` (stereo not drawn), the T/C (dose: 25.0 mg/kg/injection, schedule: Q01DX005 (ip), vehicle: saline with Tween-80) is 100 % of control; the T/C under setting [1] was 103 % of control; the T/C under setting [2] was 103 % of control; the T/C under setting [3] is 100 % of control.
Turning to `Nc1cc(-c2ccc(Br)cc2)nn1-c1nnc(-c2ccccc2)c(-c2ccccc2)n1`, the T/C reads like this: under setting [1], 101 % of control; under setting [2], 93 % of control; under setting [3], 92 % of control.
For the compound `CCOC(=O)CNC(=O)/C=C\C(=O)NC(=O)OCC`, the T/C is 110 % of control (dose: 3.7 mg/kg/injection, schedule: Q01DX009 (ip), vehicle: saline with Tween-80) and 107 % of control (dose: 7.5 mg/kg/injection, schedule: Q01DX009 (ip), vehicle: saline with Tween-80).
Regarding `COc1ccccc1-c1cn(O)c2nc(=N)nc(N)c-2n1`, the T/C (dose: 50.0 mg/kg/injection, schedule: Q04DX003 (ip), vehicle: saline with Tween-80) was 91 % of control; the T/C (dose: 100.0 mg/kg/injection, schedule: Q04DX003 (ip), vehicle: saline with Tween-80) is 89 % of control; the T/C (dose: 200.0 mg/kg/injection, schedule: Q04DX003 (ip), vehicle: saline with Tween-80) is 99 % of control; the T/C (dose: 400.0 mg/kg/injection, schedule: Q04DX003 (ip), vehicle: saline with Tween-80) was 107 % of control.
For the compound `CN1CCN(CCCN(c2cccc(C(F)(F)F)c2)c2cccc(C(F)(F)F)c2)CC1`, the T/C reads like this: under setting [4], 100 % of control; under setting [5], 98 % of control; under setting [6], 92 % of control.
In the case of `C=CCn1c(=O)n(CC)c(=O)c2[nH]c(Cl)nc21`, the T/C is, setting by setting: (dose: 15.0 mg/kg/injection, schedule: Q01DX009 (ip), vehicle: saline) 106 % of control; (dose: 30.0 mg/kg/injection, schedule: Q01DX009 (ip), vehicle: saline) 110 % of control; (dose: 60.0 mg/kg/injection, schedule: Q01DX009 (ip), vehicle: saline) 104 % of control.
Consider `CC(C(=O)c1ccc(O)cc1)(c1nc2nnc(N)n2[nH]c1=O)c1nc2nnc(N)n2[nH]c1=O`, for which the T/C by setting is: under setting [7], 98 % of control; under setting [8], 98 % of control; (dose: 240.0 mg/kg/injection, schedule: Q01DX005 (ip), vehicle: saline) 97 % of control.
With `CC(C)CC1N=C(NN=C(CCl)CCl)OP1(=O)NCCCCCCNP1(=O)OC(NN=C(CCl)CCl)=NC1CC(C)C` (stereo not drawn), the T/C (dose: 60.0 mg/kg/injection, schedule: Q01DX005 (ip), vehicle: Klucel (hydroxypropylcellulose) (HPC)) was 106 % of control.
For `COc1ccc2c(c1)CCC1C2CCC2(C)/C(=N/O)C3OC3C12` (stereo not drawn), the T/C reads like this: (dose: 12.5 mg/kg/injection, schedule: Q01DX009 (ip), vehicle: saline with Tween-80) 94 % of control and 95 % of control; (dose: 25.0 mg/kg/injection, schedule: Q01DX009 (ip), vehicle: saline with Tween-80) 110 % of control and 94 % of control; (dose: 50.0 mg/kg/injection, schedule: Q01DX009 (ip), vehicle: saline with Tween-80) 101 % of control and 94 % of control; (dose: 100.0 mg/kg/injection, schedule: Q01DX009 (ip), vehicle: saline with Tween-80) 101 % of control and 94 % of control.
Consider `CCCCC1(C2c3ccccc3Oc3ccccc32)C(=O)N(c2ccccc2)N(c2ccccc2)C1=O`, for which the T/C is 98 % of control under setting [9]; 93 % of control (dose: 120.0 mg/kg/injection, schedule: Q01DX005 (ip), vehicle: saline with Tween-80); 90 % of control (dose: 240.0 mg/kg/injection, schedule: Q01DX005 (ip), vehicle: saline with Tween-80).
On to `Cc1c(Cl)c(Cl)nn1C(C)C(=O)N(C)C` (stereo not drawn), for which the T/C is, setting by setting: (dose: 100.0 mg/kg/injection, schedule: Q04DX003 (ip), vehicle: Klucel (hydroxypropylcellulose) (HPC)) 95 % of control; (dose: 200.0 mg/kg/injection, schedule: Q04DX003 (ip), vehicle: Klucel (hydroxypropylcellulose) (HPC)) 95 % of control.
Turning to `Cc1nnc(-n2cccc2)s1`, the T/C is, setting by setting: (dose: 12.5 mg/kg/injection, schedule: Q01DX009 (ip), vehicle: Klucel (hydroxypropylcellulose) (HPC)) 105 % of control; (dose: 25.0 mg/kg/injection, schedule: Q01DX009 (ip), vehicle: Klucel (hydroxypropylcellulose) (HPC)) 104 % of control and 95 % of control; (dose: 50.0 mg/kg/injection, schedule: Q01DX009 (ip), vehicle: Klucel (hydroxypropylcellulose) (HPC)) 100 % of control and 106 % of control; (dose: 100.0 mg/kg/injection, schedule: Q01DX009 (ip), vehicle: Klucel (hydroxypropylcellulose) (HPC)) 100 % of control and 111 % of control.
With `Nc1ccc2nc3ccccc3c(NCCCCCCCCNc3c4ccccc4nc4ccc(N)cc34)c2c1`, the T/C by setting is: (dose: 2.5 mg/kg/injection, schedule: Q01DX009 (ip), vehicle: water) 160 % of control; (dose: 5.0 mg/kg/injection, schedule: Q01DX009 (ip), vehicle: water) 160 % of control.
`COc1ccc2c(c1)N=C(NNC1=Nc3cc(OC)ccc3SC1)CS2`: the T/C reads like this: (dose: 15.0 mg/kg/injection, schedule: Q01DX005 (ip), vehicle: saline with Tween-80) 113 % of control and 97 % of control; (dose: 30.0 mg/kg/injection, schedule: Q01DX005 (ip), vehicle: saline with Tween-80) 101 % of control and 102 % of control; under setting [9], 100 % of control and 91 % of control.
As for `Cc1cc(NC(=S)SCc2ccc(F)cc2)c([N+](=O)[O-])cc1C`, the T/C (dose: 50.0 mg/kg/injection, schedule: Q01DX009 (ip), vehicle: suspension in saline) is 93 % of control; the T/C (dose: 100.0 mg/kg/injection, schedule: Q01DX009 (ip), vehicle: suspension in saline) was 90 % of control; the T/C (dose: 200.0 mg/kg/injection, schedule: Q01DX009 (ip), vehicle: suspension in saline) was 98 % of control.
`CC(COS(C)(=O)=O)OS(C)(=O)=O` (stereo not drawn): the T/C under setting [4] was 98 % of control, the T/C under setting [5] was 93 % of control and the T/C under setting [6] was 101 % of control.
As to `Cc1oc2ccccc2c(=O)c1CN1CCN(C)CC1`, the T/C by setting is: under setting [7], 101 % of control; under setting [8], 103 % of control.
Turning to `CCCCCNc1ncnc2c(C)[nH]nc12`, the T/C runs as follows: (dose: 12.5 mg/kg/injection, schedule: Q01DX005 (ip), vehicle: Klucel (hydroxypropylcellulose) (HPC)) 105 % of control; (dose: 25.0 mg/kg/injection, schedule: Q01DX005 (ip), vehicle: Klucel (hydroxypropylcellulose) (HPC)) 98 % of control; (dose: 50.0 mg/kg/injection, schedule: Q01DX005 (ip), vehicle: Klucel (hydroxypropylcellulose) (HPC)) 91 % of control; (dose: 100.0 mg/kg/injection, schedule: Q01DX005 (ip), vehicle: Klucel (hydroxypropylcellulose) (HPC)) 90 % of control; (dose: 200.0 mg/kg/injection, schedule: Q01DX005 (ip), vehicle: Klucel (hydroxypropylcellulose) (HPC)) 90 % of control.
For `OCC(O)C(O)C(O)C(O)c1nn[nH]n1` (stereo not drawn), the T/C (dose: 100.0 mg/kg/injection, schedule: Q01DX001 (ip), vehicle: saline) was 95 % of control; the T/C (dose: 200.0 mg/kg/injection, schedule: Q01DX001 (ip), vehicle: saline) is 101 % of control; the T/C (dose: 400.0 mg/kg/injection, schedule: Q01DX001 (ip), vehicle: saline) is 92 % of control.
For `C=[CH][Sn]([CH]=C)([c]1ccccc1)[c]1ccccc1`, the T/C was 107 % of control (dose: 50.0 mg/kg/injection, schedule: Q01DX005 (ip), vehicle: saline); 108 % of control (dose: 100.0 mg/kg/injection, schedule: Q01DX005 (ip), vehicle: saline); 104 % of control (dose: 200.0 mg/kg/injection, schedule: Q01DX005 (ip), vehicle: saline).
